According to the NIST ThermoML archive (doi:10.1016/j.tca.2015.04.027):
Numbers after ± are expanded uncertainties.

Columns and labels:
[1] = xn = mol fraction of the nth substance listed; settings: 87 kPa, Liquid, Vibrating tube method
[2] = 87 kPa, Liquid, Vibrating tube method

C=CCO [2-propenol] + CCOS(=O)(=O)[O-].CCn1cc[n+](C)c1
mass density [kg/m3], [1]
Settings | 298.15 K | 303.15 K | 308.15 K | 313.15 K | 318.15 K
x1 = 0.0988 | 1223.65 ± 1.6 | 1220.28 ± 1.6 | 1216.87 ± 1.6 | 1213.47 ± 1.6 | 1210.09 ± 1.6
x1 = 0.1811 | 1211.14 ± 1.6 | 1207.72 ± 1.6 | 1204.27 ± 1.6 | 1200.85 ± 1.5 | 1197.44 ± 1.5
x1 = 0.2833 | 1193.07 ± 1.5 | 1189.54 ± 1.5 | 1186.02 ± 1.5 | 1182.52 ± 1.5 | 1179.15 ± 1.5
x1 = 0.4107 | 1165.72 ± 1.5 | 1162.19 ± 1.5 | 1158.64 ± 1.5 | 1155.11 ± 1.5 | 1151.59 ± 1.5
x1 = 0.4939 | 1143.57 ± 1.4 | 1140.1 ± 1.4 | 1136.5 ± 1.4 | 1133 ± 1.4 | 1129.55 ± 1.4
x1 = 0.5909 | 1112.3 ± 1.4 | 1109.47 ± 1.4 | 1105.88 ± 1.4 | 1102.21 ± 1.4 | 1098.55 ± 1.4
x1 = 0.7086 | 1064.08 ± 1.4 | 1061.4 ± 1.4 | 1058 ± 1.4 | 1054.02 ± 1.3 | 1049.98 ± 1.4
x1 = 0.8066 | 1012 ± 1.3 | 1009.5 ± 1.3 | 1005.8 ± 1.3 | 1001.87 ± 1.3 | 997.66 ± 1.3
x1 = 0.9057 | 942.5 ± 1.3 | 939.58 ± 1.3 | 935.46 ± 1.3 | 931.33 ± 1.3 | 927.19 ± 1.3
x1 = 0.9835 | 869.29 ± 1.3 | 865.2 ± 1.3 | 860.9 ± 1.3 | 856.62 ± 1.3 | 852.28 ± 1.3
x1 = 1 | 850.4 ± 1.2 | 846.02 ± 1.2 | 841.59 ± 1.2 | 837.13 ± 1.2 | 832.63 ± 1.2

CCOS(=O)(=O)[O-].CCn1cc[n+](C)c1 [1-ethyl-3-methylimidazolium ethyl sulfate]
[2]
Settings | mass density [kg/m3]
298.15 K | 1236.42 ± 1.6
303.15 K | 1233.09 ± 1.6
308.15 K | 1229.72 ± 1.6
313.15 K | 1226.36 ± 1.6
318.15 K | 1223 ± 1.6

OC(CCl)CCl [1,3-dichloro-2-propanol] + CCOS(=O)(=O)[O-].CCn1cc[n+](C)c1
mass density [kg/m3], [1]
Settings | 298.15 K | 303.15 K | 308.15 K | 313.15 K | 318.15 K
x1 = 0.0638 | 1239 ± 1.6 | 1235.7 ± 1.5 | 1232.4 ± 1.5 | 1229 ± 1.5 | 1225.55 ± 1.5
x1 = 0.1199 | 1241.65 ± 1.5 | 1238.3 ± 1.5 | 1234.9 ± 1.5 | 1231.6 ± 1.5 | 1228.1 ± 1.5
x1 = 0.2073 | 1246.7 ± 1.4 | 1243.39 ± 1.4 | 1239.87 ± 1.4 | 1236.36 ± 1.4 | 1232.86 ± 1.4
x1 = 0.2973 | 1252.5 ± 1.4 | 1249.05 ± 1.4 | 1245.5 ± 1.4 | 1241.9 ± 1.4 | 1238.2 ± 1.4
x1 = 0.3964 | 1259.8 ± 1.3 | 1256.2 ± 1.3 | 1252.5 ± 1.3 | 1248.7 ± 1.3 | 1245.1 ± 1.3
x1 = 0.505 | 1269.3 ± 1.3 | 1265.55 ± 1.3 | 1261.5 ± 1.3 | 1257.6 ± 1.3 | 1253.9 ± 1.3
x1 = 0.6616 | 1286.79 ± 1.2 | 1282.36 ± 1.2 | 1278.15 ± 1.2 | 1274 ± 1.2 | 1270 ± 1.2
x1 = 0.7527 | 1300 ± 1.2 | 1295.49 ± 1.2 | 1291.17 ± 1.2 | 1286.8 ± 1.2 | 1282.3 ± 1.2
x1 = 0.8236 | 1313 ± 1.2 | 1308.44 ± 1.2 | 1304 ± 1.2 | 1299.5 ± 1.2 | 1294.6 ± 1.2
x1 = 0.9012 | 1329.59 ± 1.2 | 1324.72 ± 1.1 | 1319.69 ± 1.1 | 1314.64 ± 1.1 | 1309.58 ± 1.1
x1 = 0.9645 | 1346 ± 1.1 | 1340.45 ± 1.1 | 1335.3 ± 1.1 | 1329.4 ± 1.1 | 1323.7 ± 1.1
x1 = 1 | 1356.46 ± 1.1 | 1350.55 ± 1.1 | 1344.61 ± 1.1 | 1338.56 ± 1.1 | 1332.47 ± 1.1

C=CCO [2-propenol]
[2]
Settings | mass density [kg/m3]
298.15 K | 850.4 ± 1.2
303.15 K | 846.02 ± 1.2
308.15 K | 841.59 ± 1.2
313.15 K | 837.13 ± 1.2
318.15 K | 832.63 ± 1.2

CCOS(=O)(=O)[O-].CCn1cc[n+](C)c1 [1-ethyl-3-methylimidazolium ethyl sulfate] + C=CCO
[1], x2 = 0
Settings | mass density [kg/m3]
298.15 K | 1236.42 ± 1.6
303.15 K | 1233.09 ± 1.6
308.15 K | 1229.72 ± 1.6
313.15 K | 1226.36 ± 1.6
318.15 K | 1223 ± 1.6

OC(CCl)CCl [1,3-dichloro-2-propanol] + C=CCO
mass density [kg/m3], [1]
Settings | 298.15 K | 303.15 K | 308.15 K | 313.15 K | 318.15 K
x1 = 0.0927 | 914.27 ± 1.2 | 909.73 ± 1.2 | 905.11 ± 1.2 | 900.45 ± 1.2 | 895.75 ± 1.2
x1 = 0.1927 | 978.2 ± 1.2 | 973.46 ± 1.2 | 968.64 ± 1.2 | 963.78 ± 1.2 | 958.88 ± 1.2
x1 = 0.2704 | 1024.81 ± 1.2 | 1019.93 ± 1.2 | 1014.97 ± 1.2 | 1009.97 ± 1.2 | 1004.93 ± 1.2
x1 = 0.3548 | 1072.33 ± 1.2 | 1067.35 ± 1.2 | 1062.2 ± 1.2 | 1057.06 ± 1.2 | 1051.87 ± 1.2
x1 = 0.4555 | 1125.39 ± 1.2 | 1120.22 ± 1.2 | 1114.94 ± 1.2 | 1109.64 ± 1.2 | 1104.29 ± 1.2
x1 = 0.4973 | 1146.3 ± 1.2 | 1141.05 ± 1.2 | 1135.75 ± 1.2 | 1130.35 ± 1.2 | 1124.95 ± 1.2
x1 = 0.6062 | 1198.1 ± 1.2 | 1192.65 ± 1.2 | 1187.2 ± 1.2 | 1181.65 ± 1.2 | 1176.1 ± 1.2
x1 = 0.7166 | 1246.88 ± 1.2 | 1241.35 ± 1.2 | 1235.7 ± 1.2 | 1230.01 ± 1.2 | 1224.28 ± 1.2
x1 = 0.8004 | 1281.46 ± 1.2 | 1275.78 ± 1.2 | 1270 ± 1.2 | 1264.19 ± 1.2 | 1258.35 ± 1.2
x1 = 0.8893 | 1316.06 ± 1.2 | 1310.26 ± 1.2 | 1304.41 ± 1.2 | 1298.46 ± 1.2 | 1292.49 ± 1.2
x1 = 0.9452 | 1336.81 ± 1.1 | 1330.96 ± 1.1 | 1325.07 ± 1.1 | 1319.07 ± 1.1 | 1313.05 ± 1.1
x1 = 1 | 1356.46 ± 1.1 | 1350.55 ± 1.1 | 1344.61 ± 1.1 | 1338.56 ± 1.1 | 1332.47 ± 1.1

OC(CCl)CCl [1,3-dichloro-2-propanol]
[2]
Settings | mass density [kg/m3]
298.15 K | 1356.46 ± 1.1
303.15 K | 1350.55 ± 1.1
308.15 K | 1344.61 ± 1.1
313.15 K | 1338.56 ± 1.1
318.15 K | 1332.47 ± 1.1

C=CCO [2-propenol] + OC(CCl)CCl
[1], x2 = 0
Settings | mass density [kg/m3]
298.15 K | 850.4 ± 1.2
303.15 K | 846.02 ± 1.2
308.15 K | 841.59 ± 1.2
313.15 K | 837.13 ± 1.2
318.15 K | 832.63 ± 1.2

CCOS(=O)(=O)[O-].CCn1cc[n+](C)c1 [1-ethyl-3-methylimidazolium ethyl sulfate] + OC(CCl)CCl
[1], x2 = 0
Settings | mass density [kg/m3]
298.15 K | 1236.42 ± 1.6
303.15 K | 1233.09 ± 1.6
308.15 K | 1229.72 ± 1.6
313.15 K | 1226.36 ± 1.6
318.15 K | 1223 ± 1.6
